These results are taken from ChEMBL document CHEMBL4706608, “Design and synthesis of 3-(4-pyridyl)-5-(4-sulfamido-phenyl)-1,2,4-oxadiazole derivatives as novel GSK-3β inhibitors and evaluation of their potential as multifunctional anti-Alzheimer agents” (Eur J Med Chem, 2021).

Data set [1] concerns HepG2. Briefly: Increase in glucose consumption in human HepG2 cells at 1 mM after 24 hrs by glucose oxidase assay (reference value: 1.36 mM). It counts as functional.
In data set [2] the test system is BV-2. Description: Anti-neuroinflammation in mouse BV2 cells assessed as inhibition of LPS-induced NO production preincubated for 1 hr followed by LPS addition measured after 24 hrs by Griess reagent based assay. It counts as functional, cell-based.
Data set [3] in a line: Efflux ratio of apparent permeability across basolateral to apical membrane to apical to basolateral membrane in MDCK2-MDR1 measured upto 120 mins. It counts as ADME, tissue-based, Canis lupus familiaris, MDCK-II. The following applies: dog.
Data set [4] deals with BV-2. Briefly: Antiinflammatory activity in LPS-stimulated mouse BV-2 cells assessed as decrease in cox-2 level at 1 to 10 uM preincubated for 1 hr followed by LPS addition measured after 24 hrs by Western blot analysis. It counts as functional, cell-based. The following applies: dose 1-10 µM, time 25.0 hrs.
Data set [5] relates to PC-12. Description: Inhibition of H2O2-induced intracellular ROS production in rat PC-12 cells pretreated for 6 hrs followed by H2O2 addition measured after 18 hrs by DCFH-DA assay. It counts as functional, cell-based. The note with it: dose 1-50 µM, time 24.0 hrs.
Data set [6] has as its system BV-2. Description: Antiinflammatory activity in LPS-stimulated mouse BV-2 cells assessed as decrease in IL-1beta level at 1 to 10 uM preincubated for 1 hr followed by LPS addition measured after 24 hrs by ELISA. It counts as functional, cell-based. The note with it: dose 1-10 µM, time 25.0 hrs.
Data set [7] is described as follows: Cytotoxicity against rat PC-12 cells assessed as cell viability at 50 uM by MTT assay relative to control. It counts as cell-based. The note with it: read-out: Activity.
Data set [8] deals with PC-12. Briefly: Neuroprotective activity against H2O2-induced cytotoxicity in rat PC12 cells assessed as increase in cell viability at 30 uM preincubated for 3 hrs followed by H2O2 addition and measured after 24 hrs by MTT assay (reference value: 24.8 to 41.7%). It counts as functional.
Data set [9] has as its system HepG2. Briefly: Increase in glucose consumption in human HepG2 cells at 20 uM after 24 hrs by glucose oxidase assay (reference value: 1.36 mM). It counts as functional.
Data set [10] addresses T1, Glycogen synthase kinase-3 beta (Homo sapiens, UniProt P49841). Briefly: Inhibition of GSK-3beta in human SH-SY5Y cells assessed as decrease in amyloid beta-induced Tau hyperphosphorylation at Ser396 pretreated for 1 hr followed Amyloid beta addition measured after 6 hrs by Western blot analysis. It counts as cell-based. The note with it: dose 5-15 µM, time 7.0 hrs.
Target sequence in this assay (P49841 whole entry, looked up): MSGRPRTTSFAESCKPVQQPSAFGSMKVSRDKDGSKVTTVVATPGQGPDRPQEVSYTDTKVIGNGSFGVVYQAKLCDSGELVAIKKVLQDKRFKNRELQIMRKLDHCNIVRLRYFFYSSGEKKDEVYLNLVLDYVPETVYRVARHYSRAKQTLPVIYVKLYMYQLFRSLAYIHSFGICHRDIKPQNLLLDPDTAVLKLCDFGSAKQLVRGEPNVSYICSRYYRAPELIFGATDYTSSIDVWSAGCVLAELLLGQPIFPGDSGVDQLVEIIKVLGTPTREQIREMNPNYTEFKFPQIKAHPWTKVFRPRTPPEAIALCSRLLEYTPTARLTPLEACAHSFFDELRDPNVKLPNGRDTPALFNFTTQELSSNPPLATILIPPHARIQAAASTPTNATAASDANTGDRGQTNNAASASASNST
In data set [11] the target is T1, Glycogen synthase kinase-3 beta. Description: Inhibition of GSK3beta (unknown origin) measured after 40 mins by ADP-Glo assay.
Target sequence in this assay (P49841 whole entry): as the sequence (P49841 whole entry, looked up) above
In data set [12] the test system is HepG2. Briefly: Cytotoxicity against human HepG2 cells assessed as cell viability at 10 to 50 uM after 24 hrs by MTT assay. Type of data set: cell-based. The note with it: hepg2, 24 h, dose 10-50 µM.
For data set [13], the system named is BV-2. Briefly: Antiinflammatory activity in LPS-stimulated mouse BV-2 cells assessed as decrease in iNOS level at 1 to 10 uM preincubated for 1 hr followed by LPS addition measured after 24 hrs by Western blot analysis. It counts as functional, cell-based. The following applies: dose 1-10 µM, time 25.0 hrs.
In data set [14] the test system is BV-2. Briefly: Antiinflammatory activity in LPS-stimulated mouse BV-2 cells assessed as decrease in TNF-alpha level at 1 to 10 uM preincubated for 1 hr followed by LPS addition measured after 24 hrs by ELISA. Type of data set: functional, cell-based. The following applies: dose 1-10 µM, time 25.0 hrs.
The nature of data set [15]: Apparent permeability from apical to basolateral side in MDCK2-MDR1 measured upto 120 mins. It counts as ADME, Canis lupus familiaris. The following applies: dog, mdck-ii, 2 h.
Data set [16] is described as follows: Antioxidant activity assessed as DPPH radical scavenging activity after 2 hrs by microplate method. The following applies: dose 1-1000 µM. It counts as functional.
The nature of data set [17]: Cytotoxicity against rat PC-12 cells assessed as cell viability at 30 uM by MTT assay relative to control. Type of data set: cell-based. The following applies: read-out: Activity.
Data set [18] deals with PC-12. Description: Neuroprotective activity against H2O2-induced cytotoxicity in rat PC12 cells assessed as increase in cell viability at 10 uM preincubated for 3 hrs followed by H2O2 addition and measured after 24 hrs by MTT assay (reference value: 24.8 to 41.7%). Type of data set: functional.
A short description of data set [19]: Cytotoxicity against human L-02 cells assessed as decreased cell viability at 50 uM after 24 hrs by MTT assay relative to control. It counts as cell-based, L02. The following applies: read-out: INH.
A short description of data set [20]: Apparent permeability from basolateral to apical side in MDCK2-MDR1 measured upto 120 mins. The note with it: dog. Type of data set: ADME, Canis lupus familiaris, MDCK-II.
In another data set the test system is SH-SY5Y. Briefly: Inhibition of H2O2-induced intracellular ROS production in human SH-SY5Y cells pretreated for 6 hrs followed by H2O2 addition measured after 18 hrs by DCFH-DA assay. It counts as functional, cell-based. The note with it: dose 1-50 µM, time 24.0 hrs.
The next data set concerns L02. Briefly: Cytotoxicity against human L-02 cells assessed as decreased cell viability at 50 uM after 24 hrs by MTT assay. The note with it: l02, 24 h. Type of data set: cell-based.
Data set [21] deals with HepG2. Briefly: Increase in glucose consumption in human HepG2 cells at 20 uM after 24 hrs by glucose oxidase assay. Type of data set: functional, cell-based.
Data set [22] in a line: Effect on swimming speed in C57BL mouse model of scopolamine-induced memory impairment model at 10 to 30 mg/kg, po administered for 7 days. Type of data set: ADME, organism-based. The following applies: in vivo, 168 h, dose 10-30 mg/kg, time 7 day.
Data set [23] deals with Mus musculus. Briefly: Cognitive enhancing effect in C57BL mouse model of scopolamine-induced memory impairment assessed as time in target quadrant at 10 to 30 mg/kg, po administered for 7 days and measured after 30 mins at 5th day of training session by Morris water maze test. Type of data set: functional, organism-based. The following applies: dose 10-30 mg/kg, time 7.0 day.

A short description of data set [24]: Effect on body weight in C57BL mouse model of scopolamine-induced memory impairment model at 10 to 30 mg/kg, po administered for 7 days. It counts as ADME, organism-based. The note with it: in vivo, 168 h, dose 10-30 mg/kg, time 7 day.
Data set [25] concerns Mus musculus. Briefly: Cognitive enhancing effect in orally dosed C57BL mouse model of scopolamine-induced memory impairment assessed as escape latency administered for 7 days and measured after 30 mins at 4th day of training session by Morris water maze test. Type of data set: functional, organism-based. The following applies: dose 10-30 mg/kg, time 7.0 day.
Data set [26] concerns Mus musculus. Briefly: Cognitive enhancing effect in C57BL mouse model of scopolamine-induced memory impairment assessed as number of virtual platform crossing at 10 to 30 mg/kg, po administered for 7 days and measured after 30 mins at 5th day of training session by Morris water maze test. The following applies: dose 10-30 mg/kg, time 7.0 day. Type of data set: functional, organism-based.

Calls of active or inactive are those of the source. The rule behind the calls is not given here.

In the data set with HepG2 [1], `CN(C)C(=N)NC(=N)N` [METFORMIN] came in with an Activity of 3.28 mM.
Regarding `CC(=O)c1ccc(S(=O)(=O)Nc2ccc(-c3nc(-c4ccnc(Nc5ccc(OC(F)(F)F)cc5)c4)no3)cc2)cc1`, the IC50 with BV-2 [2] was found to be 0.47 µM; in data set [11], 1.02 µM. Besides, in data set [3] (mdck-ii, 2 h), the Ratio is listed as 1.27. In addition, the inhibition result with BV-2 [4], in the data set on BV-2 [6], in the data set on BV-2 [13] and in the data set with BV-2 [14] was “Active” in each case. Besides, the inhibition entry (in the data set on PC-12 [5]; in data set [10]; in the data set with SH-SY5Y) was “Dose-dependent effect” in each case. In addition, the viability at 50 µM in [7] came to 98.1%. Moreover, the Activity in the data set on PC-12 [8] is 68.6%; in the data set on HepG2 [9], 3.28 mM; in the data set on HepG2 [12], “Non-Toxic”; in data set [16], “Dose-dependent effect”; in the data set with PC-12 [18], 57.1%. For the same compound, the permeability was 1.31 10^-5 cm/s in data set [15] and 1.66 10^-5 cm/s in data set [20] (mdck-ii, 2 h). For the same compound, in data set [17], the viability at 30 µM was determined as 99.1%. Besides, the cytotoxicity at 24 h, 50 µM in data set [19] worked out at 20%.
With `CC(C)(C)c1ccc(S(=O)(=O)Nc2ccc(-c3nc(-c4ccnc(Nc5cccc(Cl)c5)c4)no3)cc2)cc1`, the Activity entry in the data set with L02 is on record as “Non-Toxic”; with PC-12 [8], 64.9%; in [22] it was “Non-Toxic”; with HepG2 [9], 3.43 mM; in [24], “Non-Toxic”; in the data set with HepG2 [12] it was “Non-Toxic”. In addition, the Activity entry with Mus musculus [25] is “Dose-dependent effect”; in data set [16] it was “Dose-dependent effect”; in the data set on PC-12 [18], 54.3%. Besides, the values for the IC50 (in the data set with BV-2 [2]; in data set [11]) were 6.94 µM and 0.19 µM, respectively. Besides, the efflux ratio at 2 h in data set [3] (MDCK-MDR1) amounted to 1.02. In addition, the inhibition result in the data set on BV-2 [4], in the data set on BV-2 [6], in the data set with BV-2 [13] and in the data set with BV-2 [14] was “Active” in each case. Moreover, the inhibition entry (in the data set on PC-12 [5]; in [10]; in the data set on SH-SY5Y) was “Dose-dependent effect” each time. Besides, the viability at 50 µM in data set [7] is 97.2%. For the same compound, the result in the data set on HepG2 [21], in the data set with Mus musculus [23] and with Mus musculus [26] was Active. Also, the permeability in data set [15] is on record as 1.89 10^-5 cm/s. The viability at 30 µM in [17] was 99.2%. Further, the Papp B→A at 2 h in [20] (MDCK-MDR1, read-out: permeability) amounted to 19.3 ×10⁻⁶ cm/s.
`CC(C)(C)c1ccc(S(=O)(=O)Nc2ccc(-c3nc(-c4ccnc(Nc5ccc(F)c(F)c5)c4)no3)cc2)cc1`: the IC50 in the data set with BV-2 [2] was 2.44 µM; in data set [11] it was 1.32 µM. The viability at 50 µM in [7] stood at 92.7%. Moreover, the outcome in the data set on HepG2 [21] was inactive. Also, the Activity is on record as 60.4% with PC-12 [8] and 49.6% with PC-12 [18]. Further, the viability at 30 µM in data set [17] was determined as 97.7%.
Turning to `CC(=O)Nc1cccc(S(=O)(=O)Nc2ccc(-c3nc(-c4ccnc(Nc5ccc(OC(F)(F)F)cc5)c4)no3)cc2)c1`, the IC50 with BV-2 [2] worked out at 7.55 µM; in data set [11], 2.17 µM. In data set [7], the viability at 50 µM turned out to be 79.2%. In addition, in the data set with HepG2 [21], the result was inactive. Further, the Activity in the data set on PC-12 [8] is given as 54.7%; with PC-12 [18], 51.6%. The viability at 30 µM in data set [17] came out at 93.2%.
As to `O=S(=O)(Nc1ccc(-c2nc(-c3ccnc(Nc4ccc(OC(F)(F)F)cc4)c3)no2)cc1)c1cccs1`, the results for the IC50 (in the data set on BV-2 [2]; in data set [11]) were 1.3 µM and 7.63 µM, respectively. Also, the viability at 50 µM in data set [7] turned out to be 94.5%. Further, the outcome with HepG2 [21] was Active. Also, the Activity in the data set on PC-12 [8] was determined as 54.9%; with PC-12 [18], 57%. Moreover, the viability at 30 µM in data set [17] stood at 97.5%.
Consider `COc1ccc(S(=O)(=O)Nc2ccc(-c3nc(-c4ccnc(Nc5ccc(OC(F)(F)F)cc5)c4)no3)cc2)cc1`, for which the IC50 in the data set with BV-2 [2] came out at 3.23 µM; in [11], 15.4 µM. Moreover, the viability at 50 µM in [7] turned out to be 92.2%. Further, the outcome in the data set with HepG2 [21] was Active. Besides, the Activity in the data set with PC-12 [8] is given as 68.6%; in the data set on PC-12 [18], 55.8%. Besides, the viability at 30 µM in data set [17] stood at 99.2%.
Consider `O=[N+]([O-])c1ccc(S(=O)(=O)Nc2ccc(-c3nc(-c4ccnc(Nc5ccc(OC(F)(F)F)cc5)c4)no3)cc2)cc1`, for which the IC50 with BV-2 [2] is 7.59 µM; in [11] it was greater than 50 µM. In addition, the viability at 50 µM in data set [7] amounted to 90.5%. In the data set with HepG2 [21], the outcome was inactive. Besides, the Activity was determined as 53.4% in the data set with PC-12 [8] and 38.6% in the data set on PC-12 [18]. Also, the viability at 30 µM in data set [17] is 98.5%.
On to `CC(C)(C)c1ccc(Nc2cc(-c3noc(-c4ccc(NS(=O)(=O)c5ccc(C(C)(C)C)cc5)cc4)n3)ccn2)cc1`, for which the IC50 in the data set on BV-2 [2] was 10.9 µM; in data set [11], 0.56 µM. In addition, the viability at 50 µM in [7] was found to be 99.7%. Also, the outcome with HepG2 [21] was Active. In addition, the Activity with PC-12 [8] worked out at 70.1%; in the data set with PC-12 [18], 61.3%. Besides, in data set [17], the viability at 30 µM was 96.2%.
